Assays:
Format in all cases: biochemical
KDM6B (JMJD3) = target: T1, KDM6B (JMJD3) (Homo sapiens, UniProt O15054); test: Histone lysine demethylase AlphaLISA assay, KDM6B; conditions: read-out: KDM6B HDME Inhibition IC50
T1 construct: 1043-end; purchased BPS; host or cells: Bac (baculovirus system)
Description: (§1) Assays are performed analogously to the protocol described by PerkinElmer (Roy et al. PerkinElmer Technical Note: AlphaLISA #12, April 2011)
(§2) Enzymes are dissolved in enzyme buffer and incubated for 10 min before being added to 3% DMSO solutions of compounds in enzyme buffer. Incubated for another 10 minutes, before substrate solution is added and the reaction mixture is incubated at room temperature. 10 μL acceptor beads, suspended in Epigenetic Buffer (Perkin Elmer AL008) from stock, are added and the suspension is incubated in the dark at room temperature, before a suspension of streptavidin donor beads (Perkin Elmer 6760002) in Epigenetic Buffer is added. After incubation at room temperature in the dark the plates are read. […]
BK27M3: Biotin-ATKAAR(Kme3)SAPATGGVKKPHRY-NH2? (Caslo, Denmark) […]
(§3) Substrate Solution: Substrate, 25 μM L-Asc, and 10 μM α-KG in Buffer A.

KDM2B (FBXL10) = target: T2, KDM2B (FBXL10) (Homo sapiens, UniProt Q8NHM5); test: Histone lysine demethylase AlphaLISA assay, KDM2B; conditions: read-out: KDM2B HDME Inhibition IC50
T2 sequence (Q8NHM5 1-650): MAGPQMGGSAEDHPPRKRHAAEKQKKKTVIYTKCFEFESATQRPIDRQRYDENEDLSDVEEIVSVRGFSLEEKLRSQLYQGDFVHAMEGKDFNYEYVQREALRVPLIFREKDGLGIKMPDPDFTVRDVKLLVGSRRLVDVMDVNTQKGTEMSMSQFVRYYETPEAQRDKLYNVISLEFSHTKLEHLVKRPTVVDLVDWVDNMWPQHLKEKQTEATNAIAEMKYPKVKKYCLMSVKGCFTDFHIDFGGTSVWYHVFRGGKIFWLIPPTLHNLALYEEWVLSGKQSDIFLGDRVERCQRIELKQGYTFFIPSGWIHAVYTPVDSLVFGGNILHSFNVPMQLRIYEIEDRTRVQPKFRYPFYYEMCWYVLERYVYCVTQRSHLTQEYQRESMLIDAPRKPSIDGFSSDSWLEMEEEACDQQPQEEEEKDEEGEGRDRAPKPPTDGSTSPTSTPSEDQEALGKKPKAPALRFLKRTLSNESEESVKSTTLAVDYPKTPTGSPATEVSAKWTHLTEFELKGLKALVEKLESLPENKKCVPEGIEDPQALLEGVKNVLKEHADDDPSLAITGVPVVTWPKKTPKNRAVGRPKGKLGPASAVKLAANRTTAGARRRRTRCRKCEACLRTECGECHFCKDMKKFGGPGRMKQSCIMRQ
Summary of the method: (§4)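 Enzyme 10 min pre-incubation; + compound (3% DMSO soln) 10 min; + biotin-H3 methyl-Lys peptide, 25 μM L-Asc, 10 μM α-KG, RT. Read: AlphaLISA acceptor beads, then streptavidin donor beads, RT, dark.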

KDM6A (UTX) = KDM6A (UTX) (Homo sapiens, UniProt O15550); test: Histone lysine demethylase AlphaLISA assay, KDM6A; conditions: read-out: KDM6A HDME Inhibition IC50
Summary of the method: as §4

KDM5B (PLU-1) = target: T3, KDM5B (PLU-1) (Homo sapiens, UniProt Q9UGL1); test: Histone lysine demethylase AlphaLISA assay, KDM5B; conditions: read-out: KDM5B HDME Inhibition IC50
T3 sequence (Q9UGL1 1-809): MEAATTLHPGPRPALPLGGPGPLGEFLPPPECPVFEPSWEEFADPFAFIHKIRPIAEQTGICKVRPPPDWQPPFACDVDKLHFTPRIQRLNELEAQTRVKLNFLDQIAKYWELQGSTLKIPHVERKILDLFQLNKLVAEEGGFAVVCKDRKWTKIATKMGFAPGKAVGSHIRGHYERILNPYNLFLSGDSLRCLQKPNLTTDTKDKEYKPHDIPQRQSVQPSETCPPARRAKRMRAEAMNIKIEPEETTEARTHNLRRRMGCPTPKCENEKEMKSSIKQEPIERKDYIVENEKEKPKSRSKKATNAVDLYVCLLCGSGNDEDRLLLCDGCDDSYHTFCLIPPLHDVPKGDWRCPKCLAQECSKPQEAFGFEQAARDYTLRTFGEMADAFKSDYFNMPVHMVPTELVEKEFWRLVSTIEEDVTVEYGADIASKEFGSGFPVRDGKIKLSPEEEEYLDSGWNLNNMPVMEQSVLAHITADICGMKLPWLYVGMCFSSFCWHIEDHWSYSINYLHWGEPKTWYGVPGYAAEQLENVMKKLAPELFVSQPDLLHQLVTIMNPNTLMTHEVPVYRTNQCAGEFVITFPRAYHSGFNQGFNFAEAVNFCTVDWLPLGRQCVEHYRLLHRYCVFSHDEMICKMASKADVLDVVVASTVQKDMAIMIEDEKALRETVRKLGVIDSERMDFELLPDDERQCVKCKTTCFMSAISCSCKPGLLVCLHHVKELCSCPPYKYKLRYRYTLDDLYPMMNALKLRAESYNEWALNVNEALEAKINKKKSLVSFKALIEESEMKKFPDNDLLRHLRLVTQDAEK
Summary of the method: as §4

KDM5C (JARID1C) = target: T4, KDM5C (JARID1C) (Homo sapiens, UniProt P41229); test: Histone lysine demethylase AlphaLISA assay, KDM5C; conditions: read-out: KDM5C HDME Inhibition IC50
T4 construct: 2-1560; purchased BPS; host or cells: Bac (baculovirus system)
Description: as §1, §2
H3K4M3B: H-ART(Kme3)QTARKSTGGKAPRKQLA-NH-Biotin (Caslo, Denmark) […]
as §3

KDM4A (JMJD2A) = target: T5, KDM4A (JMJD2A) (Homo sapiens, UniProt O75164); test: Histone lysine demethylase AlphaLISA assay, KDM4A; conditions: read-out: KDM4A HDME Inhibition IC50
T5 construct: 1-350; purchased BPS Bioscience, US; host or cells: E. coli
T5 sequence (O75164 1-350): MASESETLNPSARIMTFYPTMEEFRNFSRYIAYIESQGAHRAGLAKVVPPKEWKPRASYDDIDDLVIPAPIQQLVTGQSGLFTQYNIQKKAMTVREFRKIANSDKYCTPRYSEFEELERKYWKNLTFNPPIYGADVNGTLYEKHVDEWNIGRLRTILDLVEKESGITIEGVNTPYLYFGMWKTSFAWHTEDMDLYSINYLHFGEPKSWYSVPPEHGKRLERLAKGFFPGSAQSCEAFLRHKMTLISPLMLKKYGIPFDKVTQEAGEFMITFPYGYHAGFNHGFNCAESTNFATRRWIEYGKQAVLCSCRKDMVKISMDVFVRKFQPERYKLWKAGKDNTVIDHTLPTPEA
Description: as §1
Enzymes are dissolved in enzyme buffer and incubated for 10 min before being added to 3% DMSO solutions of compounds in enzyme buffer. Incubated for another 10 minutes, before substrate solution is added and the reaction mixture is incubated at room temperature. 10 μL acceptor beads, suspended in Epigenetic Buffer (Perkin Elmer AL008) from stock, are added and the suspension is incubated in the dark at room temperature, before a suspension of streptavidin donor beads (Perkin Elmer 6760002) in Epigenetic Buffer is added. After incubation at room temperature in the dark the plates are read.
BK9M3: Biotin-ARTKQTAR(KMe3)STGGKAPRKQ-NH2 (Caslo, Denmark) […]
as §3

T4 sequence (P41229 2-1560): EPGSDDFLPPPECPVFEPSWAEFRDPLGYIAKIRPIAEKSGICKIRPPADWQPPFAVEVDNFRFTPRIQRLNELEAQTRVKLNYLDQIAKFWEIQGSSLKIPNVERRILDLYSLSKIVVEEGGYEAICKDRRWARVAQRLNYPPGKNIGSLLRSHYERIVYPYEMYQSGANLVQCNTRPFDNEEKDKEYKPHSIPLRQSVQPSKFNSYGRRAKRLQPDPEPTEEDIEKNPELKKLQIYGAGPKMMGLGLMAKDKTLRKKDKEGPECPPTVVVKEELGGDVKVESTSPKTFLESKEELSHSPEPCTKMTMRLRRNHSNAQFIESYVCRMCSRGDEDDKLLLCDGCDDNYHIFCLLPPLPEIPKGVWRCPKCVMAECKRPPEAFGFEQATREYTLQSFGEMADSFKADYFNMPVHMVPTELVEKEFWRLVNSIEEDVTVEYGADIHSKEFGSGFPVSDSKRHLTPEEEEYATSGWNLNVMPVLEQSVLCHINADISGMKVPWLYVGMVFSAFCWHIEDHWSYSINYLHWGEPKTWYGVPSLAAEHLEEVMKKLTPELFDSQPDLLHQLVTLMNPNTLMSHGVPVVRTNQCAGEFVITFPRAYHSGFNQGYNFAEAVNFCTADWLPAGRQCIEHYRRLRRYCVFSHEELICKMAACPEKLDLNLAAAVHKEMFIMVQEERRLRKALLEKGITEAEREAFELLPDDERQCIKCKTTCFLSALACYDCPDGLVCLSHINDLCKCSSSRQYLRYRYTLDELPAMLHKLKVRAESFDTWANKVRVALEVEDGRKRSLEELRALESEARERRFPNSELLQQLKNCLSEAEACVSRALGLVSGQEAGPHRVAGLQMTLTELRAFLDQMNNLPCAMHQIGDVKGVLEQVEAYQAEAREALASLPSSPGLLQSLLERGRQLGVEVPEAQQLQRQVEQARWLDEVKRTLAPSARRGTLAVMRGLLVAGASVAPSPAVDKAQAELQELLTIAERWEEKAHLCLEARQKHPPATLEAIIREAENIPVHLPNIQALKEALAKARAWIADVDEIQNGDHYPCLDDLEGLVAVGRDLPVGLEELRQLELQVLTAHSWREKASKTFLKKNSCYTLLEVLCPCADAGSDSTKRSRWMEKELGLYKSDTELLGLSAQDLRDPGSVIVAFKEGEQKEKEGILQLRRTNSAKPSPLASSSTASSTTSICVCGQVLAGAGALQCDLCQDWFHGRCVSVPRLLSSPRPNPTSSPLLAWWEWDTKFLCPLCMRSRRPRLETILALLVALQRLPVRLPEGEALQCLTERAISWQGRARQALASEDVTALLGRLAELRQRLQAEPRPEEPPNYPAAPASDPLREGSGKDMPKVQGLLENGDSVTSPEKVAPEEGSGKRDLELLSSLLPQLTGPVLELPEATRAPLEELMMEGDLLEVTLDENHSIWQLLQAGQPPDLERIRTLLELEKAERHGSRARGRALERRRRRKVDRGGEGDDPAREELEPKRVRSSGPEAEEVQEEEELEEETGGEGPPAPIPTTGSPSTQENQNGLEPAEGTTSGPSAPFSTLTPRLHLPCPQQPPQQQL
Sequence of KDM6A (UTX) (O15550 919-1401): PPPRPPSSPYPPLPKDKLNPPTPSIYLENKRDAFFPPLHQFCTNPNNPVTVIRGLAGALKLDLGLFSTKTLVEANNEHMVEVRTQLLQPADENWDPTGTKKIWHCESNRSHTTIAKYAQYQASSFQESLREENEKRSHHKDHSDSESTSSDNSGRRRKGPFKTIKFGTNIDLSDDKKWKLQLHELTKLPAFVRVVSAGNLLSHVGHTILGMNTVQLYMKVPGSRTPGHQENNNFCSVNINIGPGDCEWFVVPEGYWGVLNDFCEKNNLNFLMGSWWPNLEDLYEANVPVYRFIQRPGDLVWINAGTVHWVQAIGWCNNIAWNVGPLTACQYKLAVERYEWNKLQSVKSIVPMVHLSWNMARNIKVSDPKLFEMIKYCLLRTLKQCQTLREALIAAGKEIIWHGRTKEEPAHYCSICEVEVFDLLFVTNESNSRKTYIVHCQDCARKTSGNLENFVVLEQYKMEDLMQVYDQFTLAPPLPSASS
T1 sequence (O15054 1043-1682 isoform O15054-1 limits assumed): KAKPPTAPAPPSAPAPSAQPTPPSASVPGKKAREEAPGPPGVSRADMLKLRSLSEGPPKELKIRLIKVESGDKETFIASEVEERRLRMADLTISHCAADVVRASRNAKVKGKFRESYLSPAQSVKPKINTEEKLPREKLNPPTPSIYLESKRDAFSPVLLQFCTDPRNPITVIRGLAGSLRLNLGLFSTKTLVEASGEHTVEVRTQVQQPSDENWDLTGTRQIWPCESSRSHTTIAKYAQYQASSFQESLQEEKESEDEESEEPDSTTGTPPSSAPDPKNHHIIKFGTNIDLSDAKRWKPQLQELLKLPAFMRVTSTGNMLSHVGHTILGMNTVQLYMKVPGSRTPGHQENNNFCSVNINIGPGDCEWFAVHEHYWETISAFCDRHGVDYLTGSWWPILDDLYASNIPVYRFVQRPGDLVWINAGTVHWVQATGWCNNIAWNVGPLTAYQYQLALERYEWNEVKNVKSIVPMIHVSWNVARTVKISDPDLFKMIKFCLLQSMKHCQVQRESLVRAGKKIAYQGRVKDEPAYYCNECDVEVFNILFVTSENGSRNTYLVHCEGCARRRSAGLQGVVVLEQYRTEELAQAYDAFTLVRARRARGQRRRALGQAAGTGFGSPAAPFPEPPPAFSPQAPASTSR

| IC50 (KDM6B (JMJD3)) | IC50 (KDM2B (FBXL10)) | IC50 (KDM6A (UTX)) | IC50 (KDM5B (PLU-1)) | IC50 (KDM5C (JARID1C)) | IC50 (KDM4A (JMJD2A)) | SMILES |
| --- | --- | --- | --- | --- | --- | --- |
| > 2500 nM | > 2500 nM | > 2500 nM | 250 to 2500 nM | 250 to 2500 nM | > 2500 nM | CN(C)C(=O)CNCc1cc(CNCCF)ccn1 [Compound 14, 2-{[(4-{[(2-fluoroethyl)amino]-methyl}pyridin-2-yl)methyl]amino}-N,N-dimethylacetamide] |
| > 2500 nM | > 2500 nM | > 2500 nM | < 250 nM | 250 to 2500 nM | > 2500 nM | CN(C)CCNCc1ccnc(CNCC(=O)N(C)C)c1 [Compound 15, 2-({[4-({[2-(dimethylamino)ethyl]-amino}methyl)pyridin-2-yl]methyl}amino)-N,N-dimethylacetamide] |
| > 2500 nM | > 2500 nM | > 2500 nM | 250 to 2500 nM | 250 to 2500 nM | > 2500 nM | c1ccc(CN2CCC[C@H]2CNCc2cc(CNCC3CC3)ccn2)cc1 [Compound 16, {[(2S)-1-benzylpyrrolidin-2-yl]methyl}[(4-{[(cyclopropylmethyl)-amino]methyl}pyridin-2-yl)methyl]amine] |
| > 2500 nM | > 2500 nM |  | < 250 nM | < 250 nM | > 2500 nM | CN(C)CCC/N=C/c1ccnc(CNCCCN(C)C)c1 [Compound 37, [3-(dimethylamino)propyl]-({4-[{[3-(dimethylamino)propyl]-imino}methyl]pyridin-2-yl}methyl)amine] |
|  | > 2500 nM | > 2500 nM | < 250 nM | < 250 nM | > 2500 nM | CCN(CC)CCCCNCc1cc(/C=N\CCC2CCCCC2)ccn1 [Compound 67, (2-cyclohexylethyl)-({[2-({[4-(diethylamino)-butyl]amino}methyl)pyridin-4-yl]methylidene})-amine] |
| > 2500 nM | > 2500 nM | > 2500 nM | < 250 nM | < 250 nM |  | O=Cc1ccnc(CNCCCN2CCCC2)c1 [Compound 111, 2-({[3-(pyrrolidin-1-yl)propyl]amino}-methyl)pyridine-4-carbaldehyde] |
| > 2500 nM | > 2500 nM | > 2500 nM |  | < 250 nM | < 250 nM | CCN(CC)CCCCNC(=O)CNCc1cc(C=O)ccn1 [Compound 112, N-[4-(diethylamino)-butyl]-2-{[(4-formylpyridin-2-yl)methyl]amino}-acetamide] |
| > 2500 nM | > 2500 nM |  | < 250 nM | < 250 nM | > 2500 nM | CN(C)CCCCCNCc1cc(C=O)ccn1 [Compound 114, 2-({[5-(dimethylamino)-pentyl]amino}methyl)-pyridine-4-carbaldehyde] |

The next lines start with the compound.

| SMILES | IC50 (KDM6B (JMJD3)) | IC50 (KDM2B (FBXL10)) | IC50 (KDM6A (UTX)) | IC50 (KDM5B (PLU-1)) | IC50 (KDM5C (JARID1C)) | IC50 (KDM4A (JMJD2A)) |
| --- | --- | --- | --- | --- | --- | --- |
| CCN(CC)CCCCNCc1cc(CNC(=O)C(F)(F)F)ccn1 [Compound 1, N-{[2-({[4-(diethylamino)butyl]-amino}methyl)pyridin-4-yl]methyl}-2,2,2-trifluoroacetamide] | > 2500 nM | > 2500 nM | > 2500 nM | 250 to 2500 nM | 250 to 2500 nM | 250 to 2500 nM |
| CN(C)CCCNCc1cc(CN)ccn1 [Compound 3, [2-({[3-(dimethylamino)propyl]-amino}methyl)pyridin-4-yl]methanamine] | > 2500 nM | > 2500 nM | > 2500 nM | 250 to 2500 nM | < 250 nM | < 250 nM |
| CCN(CCN(C)C)C(=O)CNCc1cc(CN)ccn1 [Compound 4, 2-({[4-(aminomethyl)pyridin-2-yl]methyl}amino)-N-[2-(dimethylamino)ethyl]-N-ethylacetamide] | > 2500 nM | > 2500 nM | > 2500 nM | < 250 nM | < 250 nM | 250 to 2500 nM |
| CCN(CC)CCCCN(Cc1cc(CNC(=O)C(F)(F)F)ccn1)C(=O)C(F)(F)F [Compound 6, N-[4-(diethylamino)butyl]-- 2,2,2-trifluoro-N-({4-[(trifluoroacetamido)-methyl]pyridin-2-yl}methyl)acetamide] | > 2500 nM | > 2500 nM | > 2500 nM | > 2500 nM | > 2500 nM | 250 to 2500 nM |
| CN(C)CCCCCNCc1cc(CN)ccn1 [Compound 8, [2-({[5-(dimethylamino)pentyl]-amino}methyl)pyridin-4-yl]methanamine] | > 2500 nM | > 2500 nM | > 2500 nM | < 250 nM | < 250 nM | > 2500 nM |
| COc1ccccc1CN1CCC(NC(=O)CNCc2cc(CN)ccn2)CC1 [Compound 9, 2-({[4-(aminomethyl)pyridin-2-yl]methyl}amino)-N-{1-[(2-methoxyphenyl)methyl]-piperidin-4-yl}acetamide] | > 2500 nM | > 2500 nM | > 2500 nM | 250 to 2500 nM | < 250 nM | > 2500 nM |
| CCCNCc1cc(CNC2CC2)ccn1 [Compound 12, N-({2-[(propylamino)methyl]-pyridin-4-yl}methyl)-cyclopropanamine] | > 2500 nM | > 2500 nM | > 2500 nM | 250 to 2500 nM | > 2500 nM | > 2500 nM |
| CN(C)C(=O)CNCc1cc(CNCC#N)ccn1 [Compound 13, 2-{[(4-{[(cyanomethyl)amino]-methyl}pyridin-2-yl)methyl]amino}-N,N-dimethylacetamide] | > 2500 nM | > 2500 nM | > 2500 nM | 250 to 2500 nM | > 2500 nM | > 2500 nM |

Reference: patent publication US9650339B2, “Inhibitors of histone demethylases” (Gilead Sciences, Inc., priority 2013, dated 2017)
